Entries after “also recorded” stand apart in the source; their conditions may differ.
Columns and labels:
[1] = Variable humidity X-ray powder diffraction (crystallinity versus relative humidity); type: physicochemical; conditions: variable humidity XRPD; hydrochloride
Excerpt: X-ray Powder Diffraction (XRPD) patterns were taken on a Scintag XDS 2000 θ/θ diffractometer operating with copper radiation at 45 kV and 40 mA, using a Kevex Psi Peltier-cooled silicon detector. Source slits of 2 and 4 mm, and detector slits of 0.5 and 0.3 mm were used for data collection. Form II samples were gently milled using an agate mortar and pestle for approximately one minute, placed in a platinum sample pan, and leveled using a glass microscope slide. Samples taken during or post hygroscopicity testing were not milled due to the limited amount of sample available. In each case, powder diffraction patterns were scanned from 2° to 42° 2θ at 1°/minute. Calibration of the XDS 2000 was verified using Silicon powder.
For variable relative humidity experiments, the larger capacity DVS-2 Surface Measurement Systems Dynamic Vapor Sorption analyzer was used. Using a flow rate of 500 cc/min, Form II was held at desired RH settings and sampled periodically for XRPD analysis. Unmilled material was placed in the platinum sample pan and leveled using a glass microscope slide prior to analysis using the above conditions.

[2] = Hygroscopicity screening by Dynamic Water Vapor Sorption Analysis (DVS); type: physicochemical; conditions: for hygroscopicity assessment: conclusion from DVS weight gain, hydrochloride; for weight gain: 25° C. and 40° C.
Method: Hygroscopicity Screening—Comparison of Form I and Form II
Dynamic Vapor Sorption (DVS) Analysis Studies were Conducted on Form II Versus Form I.
Dynamic Water Vapor Sorption Analysis (DVS)
Form II was studied at 25° C. using a Surface Measurement Systems Dynamic Vapor Sorption DVS-1 analyzer. A sample in the range of about 14.8 mg was placed in a tared quartz sample holder at an initial ambient room humidity setting of about 48% Relative Humidity (RH). A total wet/dry nitrogen flow rate of 200 cc/min was used throughout the study. The following full cycle program was initiated: 30 min at the initial ambient RH, followed by settings of 0, 20, 40, 60, 80, 90, 95 and 98% RH, with exposure time at each humidity set point dependent upon dm/dt being less than 0.001% for 60 min. The maximum time allowed at any one humidity set point was 24 hours. For a full cycle, data collection took about 4 days to complete. After the full cycle the sample was maintained at the same RH as the initial ambient starting RH.
Form I was studied at 25° C. and 40° C. using the DVS-1 analyzer. Data was collected over two full cycles. Samples of 10.4 and 16.7 mg were placed into respective tared quartz sample holders at an initial ambient room humidity setting of about 46% RH and 33% RH, respectively. For this study, an additional 75% RH set point was used. For 2 full cycles, data collection took about 7 days at 25° C. and about 17 days at 40° C. to complete. After completion of each 2 cycle study, the samples were maintained at the same RH as the initial ambient starting RH.

| SMILES | crystallinity as the humidity is increased [1] | additional weight gain ([2]; DVS, above 60% relative humidity, 25° C.) | hygroscopicity assessment [2] | weight gain ([2]; DVS, above 90% RH) | weight gain ([2]; DVS, through about 75% RH) |
| --- | --- | --- | --- | --- | --- |
| CN1CC[C@H](c2c(O)cc(O)c3c(=O)cc(-c4ccccc4Cl)oc23)[C@H](O)C1.Cl (relative stereo) [Form II, (−)-cis-2-(2-chlorophenyl)-5,7-dihydroxy-8[4R-(3S-hydroxy-1-methyl)piperidinyl]-4H-1-benzopyran-4-one hydrochloride, reference compound] | apparent decrease in crystallinity | 15-20% | hygroscopic | – | – |
| CN1CC[C@H](c2c(O)cc(O)c3c(=O)cc(-c4ccccc4Cl)oc23)[C@H](O)C1.Cl (relative stereo) [Form I, (−)-cis-2-(2-chlorophenyl)-5,7-dihydroxy-8[4R-(3S-hydroxy-1-methyl)piperidinyl]-4H-1-benzopyran-4-one hydrochloride] | retains its crystallinity until extremely high relative humidity is reached | – | hygroscopic above 75% RH; also recorded: less hygroscopic than Form II | about 30% | 1-2% |
